# Like-named read-outs stand apart in the source and are kept apart here.
# Legend:
# [1] = test system: patients with CKD and prediabetes
# [2] = test system: patients with heart failure with reduced ejection fraction
# [3] = test system: patients with chronic kidney disease (CKD)
# Method: The study population chosen for this study included a broad population of patients with impaired kidney function. The target population had CKD (defined as eGFR ≥25 and ≤75 mL/min/1.73 m^2) with albuminuria (defined as urine albumin creatinine ratio [UACR]≥200 and ≤5000 mg/g) with or without type 2 diabetes (T2D).
# Patients included in the study satisfied the following criteria: • Female or male aged ≥18 years at the time of consent. • eGFR ≥25 and ≤75 mL/min/1.73 m^2 (CKD-EPI Formula) at visit 1. • Evidence of increased albuminuria 3 months or more before visit 1 and UACR ≥200 and ≤5000 mg/g at visit 1. • Stable, and for the patient maximum tolerated labelled daily dose, treatment with ACE-I or ARB for at least 4 weeks before visit 1, if not medically contraindicated.
# The primary outcome measure was based on the requirements as outlined in the European Medicines Agency (EMA)'s draft guideline, which states that a composite endpoint of ≥50% sustained decline in eGFR, end stage renal disease (ESRD), and renal death (death due to ESRD when dialysis is not given) are acceptable outcome measures (EMA 2016). This endpoint has also been used in a number of previous outcome studies.
# The primary variable was the time to first event included in the primary composite endpoint. The primary analysis was based on the intention to treat (ITT) principle using the FAS.
# [4] = test system: patients with chronic kidney disease (CKD); remark: listed apart in the source
# [5] = dapagliflozin 10 mg once daily, CKD and prediabetes, median follow-up of 2.4 years
# [6] = dapa group, DAPA-HF non-T2D patients
# [7] = vs placebo or standard of care CKD agent alone, in words
# [8] = vs placebo or standard of care CKD agent alone, in words, listed as Dapagliflozin
# [9] = Dapa 10 mg (N = 2149), on-treatment period per Table 2 footnote
# [10] = No diabetes, Dapa 10 mg (N = 696), on- and off-treatment periods
# [11] = patients with T2DM, Dapa 10 mg (N = 1453), on- and off-treatment periods
compound,measurement,setting,value
CCOc1ccc(Cc2cc([C@@H]3O[C@H](CO)[C@@H](O)[C@H](O)[C@H]3O)ccc2Cl)cc1 [dapagliflozin],T2D developed in,[1]; [5],3.0%
same,T2D developed in (patients/group),[1]; [5],21/697
same,event rate of newly diagnosed T2D,"[1]; dapagliflozin 10 mg once daily, median follow-up of 2.4 years",1.5 /100-patient years
same,reduction in T2D incidence,[1]; dapagliflozin vs placebo,38%
same,new-onset diabetes,[2]; [6],4.9%
same,new-onset diabetes (patients/group),[2]; [6],64/1298
same,"HR, new-onset diabetes","[2]; dapa vs placebo, 95% CI, 0.50-0.94, p=0.019, Cox",0.68
same,reduction of new-onset diabetes,"[2]; dapa vs placebo, DAPA-HF non-T2D patients",32%
same,"hazard ratio, primary end point (≥50% sustained decline in eGFR, ESRD, and CV or renal death)","[3]; dapagliflozin vs placebo, 95% CI 0.51 to 0.72, P<0.0001",0.61
same,effect on death from any cause,[3]; [7],superior
same,"effect on renal-only secondary endpoint (composite of ≥50% sustained decline in eGFR, ESRD & renal death; renal composite without CV death)",[3]; [7],superior
same,effect on secondary endpoint composite of CV death and hospitalisation for HF,[3]; [7],superior
same,"effect on time to first, second, or third hospitalisation for HF (exploratory endpoints)",[3]; [7],superior
same,effect on death from any cause,[3]; [8],superior to placebo
same,"effect on renal-only secondary endpoint (composite of ≥50% sustained decline in eGFR, ESRD & renal death; renal composite without CV death)",[3]; [8],significant treatment effect
same,effect on secondary endpoint composite of CV death and hospitalisation for HF,[3]; [8],Statistically significant reduction
same,"effect on composite of ≥50% sustained eGFR decline, ESRD, and renal or CV death (primary objective)","[3]; vs placebo, in words",clinically meaningful and statistically significant reduction
same,SAE: Infections and infestations,"[4]; Dapa 10 mg (N = 2149), on-treatment period",171 (8.0) Number (%) of subjects
same,Any AE with outcome = death,[4]; [9],106 (4.9) Number (%) of subjects
same,Any SAE (including events with outcome = death),[4]; [9],633 (29.5) Number (%) of subjects
same,Any AE with outcome = death,[4]; [10],17 (2.4) Number (%) of subjects
same,Any SAE (including events with outcome = death),[4]; [10],150 (21.6) Number (%) of subjects
same,"Deaths, SAEs (serious adverse events) and DAEs (discontinuations due to adverse event)","[4]; dapagliflozin group compared with placebo group, in words",fewer
same,AEs leading to dose reduction,"[4]; human, in vivo",few but more common
same,"patients reported SAEs, overall","[4]; human, in vivo",fewer
same,Any AE with outcome = death,[4]; [11],89 (6.1) Number (%) of subjects
same,Any SAE (including events with outcome = death),[4]; [11],483 (33.2) Number (%) of subjects

# — patent publication US12213988B2 (ASTRAZENECA AB, priority 2020, dated 2025)
